pIC50: −log10 of the molar value. Activity calls are given as the source filed them. The calls are words filed in the database; no cut-off is given here.
Key:
[1] = Cytotoxicity against human MDA-MB-231 cells assessed as reduction in cell viability at 10 uM after 72 hrs by MTT assay relative to control; format: cell-based; settings: read-out: INH
[2] = target: T1, DNA topoisomerase 1 (Homo sapiens) (UniProt P11387); test: Inhibition of human recombinant topoisomerase 1 expressed in baculovirus-infected insect cells assessed as inhibition of DNA relaxation at 10 uM incubated for 30 mins by ethidium bromide staining based agarose gel electrophoresis method
T1 sequence (whole entry): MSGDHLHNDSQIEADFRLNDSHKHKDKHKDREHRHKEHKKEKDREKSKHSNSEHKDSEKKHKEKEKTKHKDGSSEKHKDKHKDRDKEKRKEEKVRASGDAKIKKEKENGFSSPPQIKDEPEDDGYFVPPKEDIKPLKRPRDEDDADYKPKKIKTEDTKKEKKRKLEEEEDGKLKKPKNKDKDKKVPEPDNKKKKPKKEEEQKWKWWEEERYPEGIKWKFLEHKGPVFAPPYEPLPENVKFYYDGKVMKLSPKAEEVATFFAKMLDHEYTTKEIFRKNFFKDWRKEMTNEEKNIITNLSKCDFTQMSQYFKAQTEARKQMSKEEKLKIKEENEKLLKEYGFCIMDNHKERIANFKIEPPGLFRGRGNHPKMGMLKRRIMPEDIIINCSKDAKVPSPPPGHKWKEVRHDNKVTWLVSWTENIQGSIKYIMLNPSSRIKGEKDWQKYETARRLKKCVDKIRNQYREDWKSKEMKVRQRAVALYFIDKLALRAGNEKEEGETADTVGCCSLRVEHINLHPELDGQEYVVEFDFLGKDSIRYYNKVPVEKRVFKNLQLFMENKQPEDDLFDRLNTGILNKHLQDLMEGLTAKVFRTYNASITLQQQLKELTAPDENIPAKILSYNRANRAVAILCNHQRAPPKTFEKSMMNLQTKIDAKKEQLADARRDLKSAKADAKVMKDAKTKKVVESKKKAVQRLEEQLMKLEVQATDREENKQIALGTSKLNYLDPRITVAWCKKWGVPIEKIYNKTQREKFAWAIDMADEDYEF

MDA-MB-231 [3] = test: Anticancer activity against human MDA-MB-231 cells assessed as inhibition of cell proliferation measured after 72 hrs by MTT assay; format: functional, cell-based; settings: MDA-MB-231, 72 h
MDA-MB-468 = test: Anticancer activity against human MDA-MB-468 cells assessed as inhibition of cell proliferation measured after 72 hrs by MTT assay; format: functional, cell-based; settings: MDA-MB-468, 72 h
MCF7 = test: Anticancer activity against human MCF7 cells assessed as inhibition of cell proliferation measured after 72 hrs by MTT assay; format: functional, cell-based; settings: MCF7, 72 h
HCT-116 = test: Anticancer activity against human HCT-116 cells assessed as inhibition of cell proliferation measured after 72 hrs by MTT assay; format: functional, cell-based; settings: HCT-116, 72 h
NCI-H1299 = test: Anticancer activity against human H1299 cells assessed as inhibition of cell proliferation measured after 72 hrs by MTT assay; format: functional, cell-based; settings: NCI-H1299, 72 h
[4] = target: T1, DNA topoisomerase 1 (Homo sapiens); test: Inhibition of human recombinant topoisomerase 1 expressed in baculovirus-infected insect cells assessed as inhibition of DNA relaxation at 3 uM incubated for 30 mins by ethidium bromide staining based agarose gel electrophoresis method
[5] = target: T1, DNA topoisomerase 1 (Homo sapiens); test: Inhibition of human recombinant topoisomerase 1 expressed in baculovirus-infected insect cells assessed as inhibition of DNA relaxation at 1 uM incubated for 30 mins by ethidium bromide staining based agarose gel electrophoresis method
[6] = target: DNA topoisomerase 2-alpha (Homo sapiens) (UniProt P11388); test: Inhibition of human recombinant topoisomerase 2alpha expressed in baculovirus-infected insect cells assessed as inhibition of DNA relaxation at 3 uM incubated for 45 mins by ethidium bromide staining based agarose gel electrophoresis method
Sequence of DNA topoisomerase 2-alpha (Homo sapiens) (P11388 whole entry): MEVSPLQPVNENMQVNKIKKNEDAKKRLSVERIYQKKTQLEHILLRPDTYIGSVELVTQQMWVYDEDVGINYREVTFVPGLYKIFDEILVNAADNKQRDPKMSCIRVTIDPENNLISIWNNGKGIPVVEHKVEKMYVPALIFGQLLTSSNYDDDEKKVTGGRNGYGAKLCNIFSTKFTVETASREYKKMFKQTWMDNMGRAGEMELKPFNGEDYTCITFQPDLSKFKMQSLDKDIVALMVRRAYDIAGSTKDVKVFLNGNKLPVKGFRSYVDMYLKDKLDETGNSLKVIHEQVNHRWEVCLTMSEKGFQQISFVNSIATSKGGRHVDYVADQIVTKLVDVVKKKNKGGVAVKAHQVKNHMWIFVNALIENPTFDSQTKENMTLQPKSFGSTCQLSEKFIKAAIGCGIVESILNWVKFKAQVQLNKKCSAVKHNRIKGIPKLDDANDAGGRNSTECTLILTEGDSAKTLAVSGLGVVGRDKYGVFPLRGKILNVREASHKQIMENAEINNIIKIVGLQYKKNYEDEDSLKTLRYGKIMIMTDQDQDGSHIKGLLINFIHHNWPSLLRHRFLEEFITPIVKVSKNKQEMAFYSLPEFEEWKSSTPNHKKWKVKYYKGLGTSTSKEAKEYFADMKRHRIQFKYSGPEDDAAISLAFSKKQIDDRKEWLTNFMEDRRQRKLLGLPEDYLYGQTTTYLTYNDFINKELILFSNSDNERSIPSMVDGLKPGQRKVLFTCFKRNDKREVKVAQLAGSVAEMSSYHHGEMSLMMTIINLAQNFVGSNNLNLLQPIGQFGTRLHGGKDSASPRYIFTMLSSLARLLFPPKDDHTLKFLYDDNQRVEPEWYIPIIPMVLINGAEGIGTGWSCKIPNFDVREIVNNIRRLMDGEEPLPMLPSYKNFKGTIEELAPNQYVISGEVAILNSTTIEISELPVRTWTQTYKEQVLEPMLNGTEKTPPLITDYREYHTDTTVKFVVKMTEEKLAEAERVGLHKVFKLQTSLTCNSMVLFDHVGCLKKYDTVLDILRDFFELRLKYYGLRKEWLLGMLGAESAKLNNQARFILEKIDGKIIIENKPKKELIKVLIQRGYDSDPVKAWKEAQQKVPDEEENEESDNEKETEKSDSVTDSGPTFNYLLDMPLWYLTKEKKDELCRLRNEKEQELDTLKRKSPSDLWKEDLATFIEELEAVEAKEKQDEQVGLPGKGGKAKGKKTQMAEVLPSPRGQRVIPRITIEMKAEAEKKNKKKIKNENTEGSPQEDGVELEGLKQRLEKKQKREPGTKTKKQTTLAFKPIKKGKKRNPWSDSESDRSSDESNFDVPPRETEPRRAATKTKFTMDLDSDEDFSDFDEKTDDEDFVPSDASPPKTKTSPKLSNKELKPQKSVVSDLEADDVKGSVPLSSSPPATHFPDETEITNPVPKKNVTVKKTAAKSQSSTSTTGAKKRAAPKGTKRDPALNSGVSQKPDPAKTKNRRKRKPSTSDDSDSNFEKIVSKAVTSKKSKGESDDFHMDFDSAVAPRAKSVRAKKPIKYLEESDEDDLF

[7] = target: DNA topoisomerase 2-alpha (Homo sapiens) (UniProt P11388); test: Inhibition of human recombinant topoisomerase 2alpha expressed in baculovirus-infected insect cells assessed as inhibition of DNA relaxation at 1 uM incubated for 45 mins by ethidium bromide staining based agarose gel electrophoresis method
MDA-MB-231 [8] = test: Cell cycle arrest in human MDA-MB-231 cells assessed as accumulation at sub-G1 phase at 10 uM after 24 hrs by propidium iodide staining-based flow cytometric analysis (reference value: 0.72%); format: functional
MDA-MB-231 [9] = test: Cell cycle arrest in human MDA-MB-231 cells assessed as accumulation at sub-G1 phase at 20 uM after 24 hrs by propidium iodide staining based flow cytometric analysis (reference value: 0.72%); format: functional
[10] = target: T1, DNA topoisomerase 1 (Homo sapiens); test: Poison activity at human recombinant topoisomerase I assessed as accumulation of supercoiled DNA at 10 uM measured after 30 mins by ethidium bromide staining based agarose gel electrophoresis
[11] = target: T1, DNA topoisomerase 1 (Homo sapiens); test: Poison activity at human recombinant topoisomerase I assessed as accumulation of supercoiled DNA by measuring restricted DNA mobility at 30 uM measured after 30 mins by ethidium bromide staining based agarose gel electrophoresis
[12] = target: T1, DNA topoisomerase 1 (Homo sapiens); test: Poison activity at human recombinant topoisomerase I in human MDA-MB-231 cells assessed as increase in chromatin incubated for 30 mins by Western blot analysis; format: cell-based
[13] = target: DNA topoisomerase 2-alpha (Homo sapiens) (UniProt P11388); test: Poison activity at human recombinant topoisomerase II alpha in human MDA-MB-231 cells assessed as increase in chromatin incubated for 30 mins by Western blot analysis; format: cell-based
MDA-MB-231 [14] = test: Cell cycle arrest in human MDA-MB-231 cells assessed as accumulation at sub-G1 phase at 2 uM after 24 hrs by propidium iodide staining-based flow cytometric analysis (reference value: 0.72%); format: functional
MDA-MB-231 [15] = test: Cell cycle arrest in human MDA-MB-231 cells assessed as accumulation at sub-G1 phase at 4 uM after 24 hrs by propidium iodide staining based flow cytometric analysis (reference value: 0.72%); format: functional
MDA-MB-231 [16] = test: Induction of apoptosis in human MDA-MB-231 cells assessed as increase in cleaved caspase-8 level incubated for 24 hrs by Western blot analysis; format: functional, cell-based
MDA-MB-231 [17] = test: Induction of apoptosis in human MDA-MB-231 cells assessed as increase in cleaved caspase-9 level incubated for 24 hrs by Western blot analysis; format: functional, cell-based
MDA-MB-231 [18] = test: Induction of cell cycle arrest in human […] assessed as increase in accumulation of cells at sub-G1 phase at 2.5 uM incubated for 24 hrs by propidium iodide based flow cytometry analysis; format: functional
MCF-10A [19] = test: Induction of cell cycle arrest in human MCF-10A cells assessed as increase in accumulation of cells at sub-G1 phase at 2.5 uM incubated for 24 hrs by propidium iodide based flow cytometry analysis
MDA-MB-231 [20] = test: Induction of DNA damage in human MDA-MB-231 cells assessed as phosphorylation of Ser 139 of histone H2AX measured after 24 hrs by western blotting analysis; format: functional, cell-based
MDA-MB-231 [21] = test: Cell cycle arrest in human MDA-MB-231 assessed as increase accumulation at G2/M phase incubated for 12 hrs by propidium iodide staining based flow cytometric analysis relative to control; format: functional
MDA-MB-231 [22] = test: Antiproliferative activity against human […] at 2.5 uM after 72 hrs by MTT assay relative to control; format: functional, cell-based
MCF-10A [23] = test: Antiproliferative activity against human MCF-10A cells at 2.5 uM after 72 hrs by MTT assay relative to control; format: cell-based

CCNc1nc2ccccc2c2c(=O)c3cc(C)ccc3sc12
cytotoxicity at 72 h, 10 µM [1]: 21%

CCCNc1nc2ccccc2c2c(=O)c3cc(OC)ccc3sc12
Activity [2]: Active | cytotoxicity at 72 h, 10 µM [1]: < 20%

NCCCNc1nc2ccccc2c2c(=O)c3cc(F)ccc3sc12
inhibition [2]: 100% | cytotoxicity at 72 h, 10 µM [1]: > 95% | pIC50 (MDA-MB-231 [3]): 5.54 | pIC50 (MDA-MB-468): 5.91 | pIC50 (MCF7): 5.40 | pIC50 (HCT-116): 5.52 | pIC50 (NCI-H1299): 5.52 | inhibition of DNA relaxation (active/inactive) [4]: Active | inhibition [5]: Active | inhibition [6]: Active

NCCCNc1nc2ccccc2c2c(=O)c3cccc(Cl)c3sc12
inhibition [2]: 100% | cytotoxicity at 72 h, 10 µM [1]: > 95% | pIC50 (MDA-MB-231 [3]): 5.66 | pIC50 (MDA-MB-468): 6.57 | pIC50 (MCF7): 5.35 | pIC50 (HCT-116): 5.60 | pIC50 (NCI-H1299): 5.43 | inhibition of DNA relaxation (active/inactive) [4]: Active | inhibition [5]: Active | inhibition [6]: Active | inhibition [7]: 100% | Activity (MDA-MB-231 [8]): 9.8% | Activity (MDA-MB-231 [9]): 35.7%

O=c1c2cc(F)ccc2sc2c(NCc3cccnc3)nc3ccccc3c12
cytotoxicity at 72 h, 10 µM [1]: 21%

Cc1ccc2sc3c(NCc4ccccc4)nc4ccccc4c3c(=O)c2c1
cytotoxicity at 72 h, 10 µM [1]: 21%

CCCNc1nc2ccccc2c2c(=O)c3cc(Cl)ccc3sc12
cytotoxicity at 72 h, 10 µM [1]: 21%

CCNc1nc2ccccc2c2c(=O)c3cccc(F)c3sc12
cytotoxicity at 72 h, 10 µM [1]: < 20%

COc1cccc2c(=O)c3c(sc12)c(NCc1ccccc1)nc1ccccc13
cytotoxicity at 72 h, 10 µM [1]: 21%

Cc1ccc2sc3c(NCCCN)nc4ccccc4c3c(=O)c2c1
inhibition [2]: 100% | cytotoxicity at 72 h, 10 µM [1]: > 95% | pIC50 (MDA-MB-231 [3]): 5.43 | pIC50 (MDA-MB-468): 5.54 | pIC50 (MCF7): < 5.30 | pIC50 (HCT-116): 5.37 | pIC50 (NCI-H1299): < 5.30 | inhibition of DNA relaxation (active/inactive) [4]: Active | inhibition [5]: Active | inhibition [6]: Active

CCCNc1nc2ccccc2c2c(=O)c3c(Cl)cccc3sc12
cytotoxicity at 72 h, 10 µM [1]: < 20%

O=c1c2cc(F)ccc2sc2c(NCc3ccccc3)nc3ccccc3c12
cytotoxicity at 72 h, 10 µM [1]: 21%

O=C(Nc1nc2ccccc2c2c(=O)c3cc(Cl)ccc3sc12)c1ccccn1
cytotoxicity at 72 h, 10 µM [1]: < 20%

O=c1c2cccc(F)c2sc2c(NCc3ccccc3)nc3ccccc3c12
cytotoxicity at 72 h, 10 µM [1]: < 20%

NCCCNc1nc2ccccc2c2c(=O)c3cc(Cl)ccc3sc12
cytotoxicity at 72 h, 10 µM [1]: > 95% | pIC50 (MDA-MB-231 [3]): 5.47 | pIC50 (MDA-MB-468): 5.96 | pIC50 (MCF7): 5.36 | pIC50 (HCT-116): 5.45 | pIC50 (NCI-H1299): 5.33 | inhibition of DNA relaxation (active/inactive) [4]: Active | inhibition [5]: Active | inhibition [6]: Active

CCCNc1nc2ccccc2c2c(=O)c3cccc(Cl)c3sc12
cytotoxicity at 72 h, 10 µM [1]: < 20%

CCCNc1nc2ccccc2c2c(=O)c3cc(F)ccc3sc12
cytotoxicity at 72 h, 10 µM [1]: 21%

CCNc1nc2ccccc2c2c(=O)c3cc(F)cc(Cl)c3sc12
cytotoxicity at 72 h, 10 µM [1]: 21%

NCCNc1nc2ccccc2c2c(=O)c3cc(F)cc(Cl)c3sc12
inhibition [2]: 100% | cytotoxicity at 72 h, 10 µM [1]: > 95% | pIC50 (MDA-MB-231 [3]): 5.94 | pIC50 (MDA-MB-468): 6.66 | pIC50 (MCF7): 6.10 | pIC50 (HCT-116): 6.28 | pIC50 (NCI-H1299): 6.28 | inhibition of DNA relaxation (active/inactive) [4]: Active | inhibition [5]: Active | inhibition [6]: Active | inhibition [7]: 100% | Activity [10]: Active | Activity [11]: Active | Activity [12]: Active | Activity [13]: Active | Activity (MDA-MB-231 [14]): 3.6% | Activity (MDA-MB-231 [15]): 39.4% | Activity (MDA-MB-231 [16]): Active | Activity (MDA-MB-231 [17]): Active | Activity (MDA-MB-231 [18]): 70.2% | Activity (MCF-10A [19]): 1.6% | Activity (MDA-MB-231 [20]): Active | Activity (MDA-MB-231 [21]): Active | Activity (MDA-MB-231 [22]): Active | Activity (MCF-10A [23]): Non-Toxic

COc1ccc2sc3c(NCCCN)nc4ccccc4c3c(=O)c2c1
inhibition [2]: 100% | cytotoxicity at 72 h, 10 µM [1]: > 95% | pIC50 (MDA-MB-231 [3]): 5.35 | pIC50 (MDA-MB-468): 5.52 | pIC50 (MCF7): < 5.30 | pIC50 (HCT-116): < 5.30 | pIC50 (NCI-H1299): < 5.30 | inhibition of DNA relaxation (active/inactive) [4]: Active | inhibition [5]: Active | inhibition [6]: Active

CCNc1nc2ccccc2c2c(=O)c3cccc(OC)c3sc12
cytotoxicity at 72 h, 10 µM [1]: 21%

COc1ccc(CNc2nc3ccccc3c3c(=O)c4cc(Cl)ccc4sc23)cc1
cytotoxicity at 72 h, 10 µM [1]: 21%

CCCNc1nc2ccccc2c2c(=O)c3ccc(Cl)cc3sc12
cytotoxicity at 72 h, 10 µM [1]: < 20%

Source: ChEMBL document CHEMBL4765261, “Design, synthesis, and biological evaluation of heterotetracyclic quinolinone derivatives as anticancer agents targeting topoisomerases” (Eur J Med Chem, 2020)
